# Results: patent US20260223850A1, “SUBSTITUTED PYRROLIDONE COMPOUND, PREPARATION METHOD THEREFOR, COMPOSITION AND APPLICATION THEREOF” (QINGDAO KINGAGROOT CHEMICAL COMPOUND CO., LTD., priority 2023, published 2026)
# Legend:
# Assay type in all cases: in vivo
# Huaidao (rice cultivar) = assay: Seedling stage sealing experiment for water-seeding (crop safety); conditions: 120 g a.i./ha, 15 days, fresh weight control rate; for Huaidao (rice cultivar) plant damage level: seedling stage sealing; for Huaidao (rice cultivar) plant damage level (growth control rate): spray, seedling stage sealing for water-seeding
# Excerpt: (§1) The activity level criteria for plant damage (i.e., growth control rate) are as follows: • Level 9: completely dead; • Level 8: growth control rate greater than or equal to 90% and less than 100%; • Level 7: growth control rate greater than or equal to 80% and less than 90%; • Level 6: growth control rate greater than or equal to 70% and less than 80%; • Level 5: growth control rate greater than or equal to 50% and less than 70%; • Level 4: growth control rate greater than or equal to 30% and less than 50%; • Level 3: growth control rate greater than or equal to 20% and less than 30%; • Level 2: growth control rate greater than or equal to 10% and less than 20%; • Level 1: growth control rate less than 10%; • Level 0: no effect.
# (§2) The above growth control rates are fresh weight control rates.
# (§3) Echinochloa phyllopogon, Digitaria sanguinalis, Huaidao (rice cultivar), etc. were broadcasted on the surface of nutrition bowls filled with soil and fully covered by soil. The foregoing well-prepared nutrition bowls were then placed in a cultivation box with water filled to a suitable height to keep the soil in the nutrition bowls moist. A test compound of the present invention was individually dissolved with acetone, then diluted into solution of a certain concentration using a certain amount of water, and sprayed using a spray tower. The plants were placed on a greenhouse seedbed and cultured for 15 days, and the experimental results were then collected. The compound was applied at 120, 60, 30 and 15 g a.i./ha in triplicate, and the results were averaged.
# Echinochloa crusgalli = assay: Seedling stage sealing experiment for water-seeding; conditions: 120 g a.i./ha, 15 days, fresh weight control rate
# Excerpt: as §1, §2, §3
# Echinochloa phyllopogon = assay: as above; conditions: 120 g a.i./ha, 15 days, fresh weight control rate
# Excerpt: as §1, §2, §3
# [1] = spray, seedling stage sealing for water-seeding
SMILES,Huaidao (rice cultivar) plant damage level (Huaidao (rice cultivar)),Huaidao (rice cultivar) plant damage level (growth control rate) (Huaidao (rice cultivar)),Echinochloa crusgalli activity level (growth control rate) (Echinochloa crusgalli; [1]),other results
Cc1cc(C)cc([C@H]2CN(C)C(=O)[C@@H]2C(=O)Nc2cnn(C(C)C)c2C2CC2)c1 [278′],0,–,–,Echinochloa crusgalli activity level (growth control rate) (Echinochloa crusgalli; seedling stage sealing): 6 (Level 6: growth control rate greater than or equal to 70% and less than 80%)
Cc1cc(C)cc([C@H]2CN(C)C(=O)[C@@H]2C(=O)Nc2cnn(C)c2C2=CCCC2)c1 [280′],0,–,–,Echinochloa crusgalli activity level (growth control rate) (Echinochloa crusgalli; seedling stage sealing): 6 (Level 6: growth control rate greater than or equal to 70% and less than 80%)
CCc1cc(C)cc([C@H]2CN(C)C(=O)[C@@H]2C(=O)Nc2cnn(C)c2Cl)c1 [287′],0,–,–,Echinochloa phyllopogon activity level (growth control rate) (Echinochloa phyllopogon; seedling stage sealing): 9
Cc1cc(C2CC2)cc([C@H]2CN(C)C(=O)[C@@H]2C(=O)Nc2cnn(C)c2Cl)c1 [289′],0,–,–,Echinochloa phyllopogon activity level (growth control rate) (Echinochloa phyllopogon; seedling stage sealing): 9
Cc1cc(C)cc([C@H]2CN(C)C(=O)[C@@H]2C(=O)N(CC2CC2)c2cnn(C)c2Cl)c1 [367′],1 (Level 1: growth control rate less than 10%),–,–,Echinochloa crusgalli activity level (growth control rate) (Echinochloa crusgalli; seedling stage sealing): 9
Cc1cccc([C@H]2CN(C)C(=O)[C@@H]2C(=O)Nc2cnn(C(C)(C)C)c2Cl)c1 [384′],0,–,–,Echinochloa crusgalli activity level (growth control rate) (Echinochloa crusgalli; seedling stage sealing): 6 (Level 6: growth control rate greater than or equal to 70% and less than 80%)
Cc1cc(C)cc([C@H]2CN(C)C(=O)[C@@H]2C(=O)Nc2cnn(C)c2C(F)(F)C(F)(F)F)c1 [428′],0,–,–,Echinochloa crusgalli activity level (growth control rate) (Echinochloa crusgalli; seedling stage sealing): 6 (Level 6: growth control rate greater than or equal to 70% and less than 80%)
COc1cc([C@H]2CN(C)C(=O)[C@@H]2C(=O)Nc2cnn(C)c2Cl)cc(OC)c1OC [449′],–,0,6 (Level 6: growth control rate greater than or equal to 70% and less than 80%),–
Cc1cccc([C@H]2CN(C)C(=O)[C@@H]2C(=O)Nc2cnn(C(=O)OC(C)(C)C)c2Cl)c1 [463′],–,0,6 (Level 6: growth control rate greater than or equal to 70% and less than 80%),–
CN1C[C@H](c2cccc(C(F)(F)F)c2)[C@@H](C(=O)Nc2cnn(C)c2C(N)=O)C1=O [482′],–,0,9,–
Cc1cc(C)cc([C@H]2CN(C)C(=O)[C@@H]2C(=O)N(C)c2cnn(C)c2Cl)c1 [490′],–,0,9,–
CN1C[C@H](c2cc(Br)cc(C(F)F)c2)[C@@H](C(=O)Nc2cnn(C)c2C2CC2)C1=O [513′],–,0,9,–
Cc1cccc([C@H]2CN(C)C(=O)[C@@H]2C(=O)Nc2cnn(C)c2[S+](C)[O-])c1 (stereo partly drawn) [530′],–,0,9,–
Cc1cc(C)cc([C@H]2CN(C)C(=O)[C@@H]2C(=O)Nc2cnn(C)c2-c2cscn2)c1 [551′],–,0,9,–
CN1CC(c2csc3ccccc23)C(C(=O)Nc2cnn(C)c2Cl)C1=O (stereo not drawn) [Compound 359],0,–,–,Echinochloa phyllopogon activity level (growth control rate) (Echinochloa phyllopogon; seedling stage sealing): 7 (Level 7: growth control rate greater than or equal to 80% and less than 90%)
CN1CC(c2cccc(C(F)(F)F)c2)C(C(=O)Nc2cnn(C)c2CF)C1=O (stereo not drawn) [Compound 477],–,0,9,–
Cc1cc(C)cc(C2CN(C)C(=O)C2C(=O)Nc2cnn(C)c2N(C)C)c1 (stereo not drawn) [Compound 499],–,0,8 (Level 8: growth control rate greater than or equal to 90% and less than 100%),–
CN1CC(c2cc(F)cc(C(F)(F)F)c2)C(C(=O)Nc2cnn(C)c2C(F)(F)F)C1=O (stereo not drawn) [Compound 508],–,–,9,Echinochloa phyllopogon activity level (growth control rate) (Echinochloa phyllopogon; [1]): 9
